Source: paper PMC8096218, “Global RNA profiles show target selectivity and physiological effects of peptide-delivered antisense antibiotics” (Nucleic Acids Research, 2021)
Read-outs that look alike come from different tables or passages of the source. Where a SMILES comes first, the peptide text is derived from it. [ ]: non-standard residue; d: D form. Ahx = NCCCCCC(=O)O

Tests used:
[1] = system: wild-type (wt) Salmonella enterica serovar Typhimurium strain SL1344
Protocol: (§1) MIC values were determined by broth microdilution according to standard protocols with a few modifications ([26]). An overnight bacterial cell culture, supplemented with the appropriate antibiotic when needed, was diluted 1:100 in fresh MHB and grown to OD600 0.5. The obtained culture was diluted to ∼10^5 cfu/ml or 10^6 cfu/ml, as indicated, in non-cation-adjusted MHB. Subsequently, 190 μl bacterial solution was dispensed into a 96-well plate (Thermo Fisher Scientific) along with 10 μl of a 20x PPNA, PNA or peptide working solution. Growth was monitored by measuring the OD at 600 nm every 20 min in a Synergy H1 plate reader (Biotek) with continuous double-orbital shaking (237 cpm) at 37°C for 24 h.

[2] = system: Salmonella gene expression; assay: RNA-seq transcriptomic response; assay type: cell-based, Salmonella enterica serovar Typhimurium; conditions: 15 min; for number of differentially expressed genes: absolute fold change >2 and FDR-adjusted P-value <0.001 versus water; for number of differentially expressed genes / logFC AmgR / logFC mig-14 / logFC virK: 5 μM KFF-/RXR-constructs
Protocol: Bacterial overnight cultures were diluted 1:100 in fresh MHB and grown to OD600 0.5. The obtained cultures were diluted to ∼10^6 cfu/ml in non-cation-adjusted MHB. Afterward, the bacterial solution was transferred into low-binding 5 ml tubes (LABsolute) along with the 20× PNA, peptide or PPNA solution. The final concentrations were 5 μM for KFF- and RXR-PNAs, and 10 μM for Tat-PNAs. Equimolar concentrations were used for the respective peptide control conditions. As a negative control, cells were treated with the respective volume of sterile nuclease-free water, which was used as solvent for the test compounds.
A time kinetic was performed for subsequent northern blot analysis (5, 10, 15 min), in which the reaction was stopped at the indicated time points by using RNAprotect Bacteria (Qiagen). For RNA-seq analyses, adding RNAprotect Bacteria at 15 min post treatment stopped the reactions with the indicated PPNA constructs or the respective peptide. After vortexing for 5 s, the samples were incubated at room temperature for 10 min, followed by cell pelleting at 4°C and 21 100 ×g for 20 min. Pellets were directly used for RNA isolation or stored at –20°C (<2 days) until further processing. RNA was purified from bacterial pellets using isolation protocol #3, as described above (0.5 mg/ml lysozyme, miRNeasy).
DNase treatment, cDNA library preparation and sequencing was conducted at Vertis (Munich, Germany). The RNA samples were first fragmented using ultrasound (4 pulses of 30 s each at 4°C). Then, an oligonucleotide adapter was ligated to the 3′ ends of the RNA molecules. First-strand cDNA synthesis was performed using M-MLV reverse transcriptase and the 3′ adapter as primer. The first-strand cDNA was purified and the 5′ Illumina TruSeq sequencing adapter was ligated to the 3′ end of the antisense cDNA. The resulting cDNA was PCR-amplified to about 10–20 ng/μl using a high fidelity DNA polymerase. The cDNA was purified using the Agencourt AMPure XP kit (Beckman Coulter Genomics) and was analyzed by capillary electrophoresis. For Illumina NextSeq sequencing, the samples were pooled in approximately equimolar amounts. The cDNA pool was sequenced on an Illumina NextSeq 500 system using 75 bp read length.
Reads from the RNA-Seq experiments were trimmed, filtered and mapped against the S. enterica subsp. enterica serovar Typhimurium SL1344 reference genome and the three plasmids pSLT_SL1344, pCol1B9_SL1344 (other name is p2), and pRSF1010_SL1344 ([19]). BBDuk was applied to trim bases with a Phred quality score of <10, and adapters were removed simultaneously. Reads were then mapped against the reference genome using BBMap (v38.84) and then assigned genomic features, including both coding sequences and annotated sRNAs ([19],[29]) using the featureCounts method of the Subread (2.0.1) package.
All downstream analysis was performed using packages from the R/Bioconductor project. The raw read counts were imported and analyzed with edgeR (v3.30.0). Each set of PNA-peptide conjugate experiments (i.e. experiments with KFF, RXR and Tat peptide) was analyzed simultaneously. Genes with less than 14.6 counts per million (CPM) in at least three libraries were filtered. This cutoff value was calculated using 10/L, where L is the library size of the smallest sample (minimum library size) in millions.
Raw read counts were normalized by trimmed mean of M values (TMM) normalization. Differential expression analysis was conducted using edgeR ([31]). Estimation of quasi-likelihood (QL) dispersions was then run with the […] function. Then contrasts between all samples versus the water controls were created as input for the glmQLTest function.
Genes with an absolute fold change >2 and an adjusted P-value (Benjamini–Hochberg, ([32])) <0.001 were considered differentially expressed.

[3] = system: SL1344 ΔphoP; assay: MIC determination by broth microdilution; assay type: cell-based, Salmonella enterica serovar Typhimurium; conditions: Table 3; ∼10^5 cfu/ml; three biological replicates
Protocol: as §1
Fig. S4. Growth kinetics for MIC determ ination of 10^5 cfu/m l Salmonella wt (SL1344) and its isogenic ∆phoP m utant in the pres ence of var ying concentrations of the indicated conjugates. ( A) KFF-acpP, KFF-acpP-scram bled (scr) or KFF peptide in serial dilutions from 10 µM to 0.3 µM. ( B) RXR- acpP, RXR-acpP-scram bled (scr) or RXR peptide in seria l d ilutions f rom 10 µM to 0. 3 µM. ( C) T at-acpP, T at-acpP-scrambled (scr) or T at peptide in serial dilutions from 20 µM to 0.6 µM. D ata represent the average of three biological replicates, error bars indicate standard er ror of the m ean […]
(§2) (1 picture or pasted object on this page, not shown here)

[4] = system: wild-type Salmonella enterica serovar Typhimurium strain LT2; assay: MIC determination by broth microdilution; assay type: cell-based; conditions: Table 3; ∼10^5 cfu/ml; three biological replicates
Protocol: as §1
(§3) Fig. S5. Growth k inetics for MIC determ ination of 10^5 cfu/m l Salmonella wt (LT 2) and its isogenic
(§4) Pho PC m utant in the presen ce of var ying co ncentra tio n s of the in dicat ed co njugat e s. ( A) KFF-acpP,
(§5) KFF-acpP-scram bled (scr) or KFF peptide in s erial dilutions from 10 µM to 0.3 µM. ( B) RXR- acpP,
(§6) RXR- acpP-scram bled (scr) or RXR peptide in serial dilutions from 10 µM to 0.3 µ M. ( C) T at-acpP,
(§7) T at-acpP-scram bled (scr) or T at peptide in serial dilutions from 20 µM to 0.6 µM. Data represent
(§8) the average of three biological replicates, error bars indicate standard error of the m ean (SEM).
as §2

[5] = system: LT2 PhoP^C; assay: MIC determination by broth microdilution; assay type: cell-based, Salmonella enterica serovar Typhimurium; conditions: Table 3; ∼10^5 cfu/ml; three biological replicates
Protocol: as §1, §3, §4, §5, §6, §7, §8, §2

[6] = wild-type (wt) serovar Typhimurium strain SL1344, 24 h
[7] = edgeR, versus water, 10 μM Tat-constructs, triplicates
[8] = edgeR, versus water, 5 μM, triplicates
[9] = edgeR, versus water, 5 μM RXR-constructs, 10 μM Tat-constructs, triplicates
[10] = edgeR, versus water, 10 μM, triplicates
[11] = Table 1, ∼10^5 cfu/ml, non-cation-adjusted MHB, 37°C, 24 h, lowest concentration with OD600 < 0.1
[12] = Table 2, ∼10^6 cfu/ml, non-cation-adjusted MHB, 37°C, 24 h, performed three times
[13] = Table 3, ∼10^5 cfu/ml, three biological replicates
[14] = edgeR, versus water, 5 μM RXR-constructs, 10 μM Tat-constructs, triplicates, listed as PNATATscr
[15] = edgeR, versus water, 10 μM Tat-constructs, triplicates, listed as PNAKFFscr

## CC(=O)N[C@@H](CCCCN)C(=O)N[C@@H](Cc1ccccc1)C(=O)N[C@@H](Cc1ccccc1)C(=O)N[C@@H](CCCCN)C(=O)N[C@@H](Cc1ccccc1)C(=O)N[C@@H](Cc1ccccc1)C(=O)N[C@@H](CCCCN)C(=O)N[C@@H](Cc1ccccc1)C(=O)N[C@@H](Cc1ccccc1)C(=O)N[C@@H](CCCCN)C(=O)O [KFF, reference compound] (Ac-KFFKFFKFFK-OH; C-terminus assumed)
[1]; [6]
  MIC: >10 µM
  MIC in μM, SL1344 wt: >10 µM
[2]; 10 μM Tat-constructs
  number of differentially expressed genes: 32
[2]; RNA-seq, 5 μM
  upregulation of AmgR transcript levels: ~4 fold
[2]; [7]
  logFC AmgR: 1.914
  logFC mig-14: 2.101
  logFC virK: 2.978
[2]; [8]
  logFC yfbE: 1.473
  logFC yjeH: 1.189

## CC(=O)N[C@@H](CCCNC(=N)N)C(=O)NCCCCCC(=O)N[C@@H](CCCNC(=N)N)C(=O)N[C@@H](CCCNC(=N)N)C(=O)NCCCCCC(=O)N[C@@H](CCCNC(=N)N)C(=O)N[C@@H](CCCNC(=N)N)C(=O)NCCCCCC(=O)N[C@@H](CCCNC(=N)N)C(=O)N[C@@H](CCCNC(=N)N)C(=O)NCCCCCC(=O)N[C@@H](CCCNC(=N)N)C(=O)NCCCCCC(=O)O [RXR, reference compound] (Ac-R[Ahx]RR[Ahx]RR[Ahx]RR[Ahx]R[Ahx]-OH; C-terminus assumed)
[1]; [6]
  MIC: >10 µM
  MIC in μM, SL1344 wt: >10 µM
[2]; 10 μM Tat-constructs
  number of differentially expressed genes: 26
[2]; RNA-seq, 5 μM, below cutoff of >2
  fold change in gene expression of phoQ: 1.87 fold
[2]; [7]
  logFC AmgR: 1.916
  logFC mig-14: 1.873
  logFC virK: 2.819
[2]; [9]
  logFC mgtA: 1.432
[2]; [8]
  logFC yfbE: 1.219

## CC(C)C[C@H](NC(=O)[C@H](CCCNC(=N)N)NC(=O)[C@@H](NC(=O)[C@@H]1CCCN1C(=O)[C@@H]1CCCN1C(=O)[C@@H]1CCCN1C(=O)[C@H](CC(C)C)NC(=O)[C@H](CCCNC(=N)N)NC(=O)[C@@H](NC(=O)[C@@H]1CCCN1C(=O)[C@@H]1CCCN1C(=O)[C@@H]1CCCN1C(=O)[C@H](CC(C)C)NC(=O)[C@H](CCCNC(=N)N)NC(=O)[C@@H](N)C(C)C)C(C)C)C(C)C)C(=O)N1CCC[C@H]1C(=O)N1CCC[C@H]1C(=O)N1CCC[C@H]1C(=O)O [SAP, reference compound] (H-VRLPPPVRLPPPVRLPPP-OH; N-terminus and C-terminus assumed)
[1]; [6]
  MIC: >10 µM

## CC(C)C[C@H](NC(=O)[C@H](CCC(=O)O)NC(=O)[C@@H](NC(=O)[C@@H]1CCCN1C(=O)[C@@H]1CCCN1C(=O)[C@@H]1CCCN1C(=O)[C@H](CC(C)C)NC(=O)[C@H](CCC(=O)O)NC(=O)[C@@H](NC(=O)[C@@H]1CCCN1C(=O)[C@@H]1CCCN1C(=O)[C@@H]1CCCN1C(=O)[C@H](CC(C)C)NC(=O)[C@H](CCC(=O)O)NC(=O)[C@@H](N)C(C)C)C(C)C)C(C)C)C(=O)N1CCC[C@H]1C(=O)N1CCC[C@H]1C(=O)N1CCC[C@H]1C(=O)O [SAPE, reference compound] (H-VELPPPVELPPPVELPPP-OH; N-terminus and C-terminus assumed)
[1]; [6]
  MIC: >10 µM

## CC(=O)NCC(=O)N[C@@H](CCCNC(=N)N)C(=O)N[C@@H](CCCCN)C(=O)N[C@@H](CCCCN)C(=O)N[C@@H](CCCCN)C(=O)N[C@@H](CCCNC(=N)N)C(=O)N[C@@H](CCCNC(=N)N)C(=O)N[C@@H](CCC(N)=O)C(=O)N[C@@H](CCCNC(=N)N)C(=O)N[C@@H](CCCNC(=N)N)C(=O)N[C@@H](CCCNC(=N)N)C(=O)N[C@@H](Cc1ccc(O)cc1)C(=O)N[C@@H](CCCCN)C(=O)O [Tat, reference compound] (Ac-GRKKKRRQRRRYK-OH)
[1]; [6]
  MIC in μM, SL1344 wt: >20 µM
[2]; 10 μM Tat-constructs
  number of differentially expressed genes: 97
[2]; RNA-seq, 10 μM
  maximum fold change, mgtB: 35 fold
[2]; [7]
  logFC AmgR: 3.7167
  logFC virK: 4.014
[2]; [9]
  logFC mgtA: 2.72
[2]; [10]
  logFC cigR: 3.46
  logFC phoN: 2.478

## GRKKKRRQRRRYK [Tat-acpP-scr, Tat peptide conjugated to scrambled control PNA]
[1]; [11]
  MIC: >20 µM
[1]; [12]
  MIC: >40 µM
[1]; [13]
  MIC in μM, SL1344 wt: >20 µM
[3]
  MIC in μM, SL1344 ΔphoP: 20 µM
[4]
  MIC in μM, LT2 wt: >20 µM
[5]
  MIC in μM, LT2 PhoP^C: >20 µM
[2]; RNA-seq, 10 μM, listed as Tat-acpP-scrambled
  number of differentially expressed sRNAs, apart from AmgR upregulation: 13
[2]; [14]
  logFC SL1344_0066A: 4.787
  logFC SL1344_2742: 4.052
[2]; [10]
  logFC SL1344_1472: 3.687
  logFC ccmE2: 4.962
[2]; edgeR, versus water, 10 μM, triplicates, listed as PNATATscr
  logFC recJ: 2.253

## KFFKFFKFFK [KFF-acpP-scr]
[1]; [11]
  MIC: >10 µM
[1]; [12]
  MIC: >10 µM
[1]; [13]
  MIC in μM, SL1344 wt: >10 µM
[3]
  MIC in μM, SL1344 ΔphoP: ≥10 µM
[4]
  MIC in μM, LT2 wt: >10 µM
[5]
  MIC in μM, LT2 PhoP^C: >10 µM
[2]; 10 μM Tat-constructs
  number of differentially expressed genes: 10
[2]; RNA-seq, 5 μM, listed as KFF-acpP-scrambled
  upregulation of AmgR transcript levels: ~2 fold
[2]; [15]
  logFC mig-14: 1.6196
  logFC virK: 2.3333
[2]; [8]
  logFC SL1344_1602: 1.058
  logFC cdh-a: 0.9654
  logFC yfbE: 0.9577

## RQIKIWFQNRRMKWKK [ANT-acpP-scr]
[1]; [11]
  MIC: >10 µM

## RQIKIWFQNRRMKWKK [ANT-acpP]
[1]; Table 1, ∼10^5 cfu/ml, non-cation-adjusted MHB, 37°C, 24 h
  MIC: 12 µg/mL
[1]; [11]
  MIC: 3.3 µM

## VELPPPVELPPPVELPPP [SAPE-acpP-scr]
[1]; [11]
  MIC: >10 µM

## VRLPPPVRLPPPVRLPPP [SAP-acpP-scr]
[1]; [11]
  MIC: >10 µM
